Like-named read-outs stand apart in the source and are kept apart here.
Tests used:
[1] = Surface tension; type: physicochemical
[2] = Dipole moment; type: physicochemical; conditions: 40° C.
[3] = tested on: lambsquarters; assay: Bioefficacy testing with glyphosate, lambsquarters control; type: in vivo
Method: (§1) The adjuvancy of alkylene carbonates with glyphosate was then tested. Bioefficacy testing was conducted on lambsquarters and velvetleaf weeds. The mono-isopropylamine salt of glyphosate was applied to velvetleaf and lambsquarters weeds at 0.25 lb ae/acre, and the adjuvant mixtures were present at 0.1 v/v%. The spray volume was 20 gal/acre, and application was made at 25 psig.
(§2) Evaluations, with the same adjuvant mixtures listed above, were also made with ammonium sulfate (AMS) at 17 lb/100 gallons water carrier. For control purposes, a group of plants was not treated with any glyphosate, and another group of plants was treated with only glyphosate.
(§3) The two alkylene carbonate blends of PC and BC were compared to diethylene glycol (DEG) as a standard solvent in combination with two different nonionic surfactant systems. One surfactant system was a SURFONIC® N-95 alkyl phenol ethoxylate, and the second surfactant system was a SURFONIC® DDA-8 branched alcohol ethoxylate. (SURFONIC® brand ethoxylates are commercially available from Huntsman Petrochemical Corporation, Houston, Tex.).
(§4) The results are expressed in terms of percent control, where 0% represents no plant necrosis, and 100% represents complete plant necrosis.

[4] = free acid form; cited from earlier work
[5] = tested on: velvetleaf; assay: Bioefficacy testing with glyphosate, velvetleaf control; type: in vivo
Method: as §1, §2, §3, §4

[6] = tested on: skin; conditions: neat; cited from earlier work
[7] = tested on: Rat Hepatocyte Primary Culture; conditions: Rat Hepatocyte Primary Culture/DNA Repair Test; cited from earlier work
[8] = tested on: guinea pigs; conditions: 21-day test; cited from earlier work
[9] = Hansen Solubility Parameters of JEFFSOL brand alkylene carbonates
[10] = tested on: dogs; conditions: 21-day test; cited from earlier work
[11] = tested on: rabbits; conditions: undiluted; cited from earlier work
[12] = tested on: mammals; conditions: in vivo; cited from earlier work
[13] = criteria promulgated by the European Union; cited from earlier work
[14] = tested on: activated sludge bacteria taken from a wastewater treatment plant; conditions: 7 day test at 300 ppm; cited from earlier work
[15] = cited from earlier work

| SMILES | Surface Tension ([1]; 25° C. (* = supercooled)) | Surface Tension ([1]; 40° C.) [dynes/cm] | Dipole Moment [2] [Debyes] | Hansen Sol Par, dispersive [9] [cal^1/2 cm^−3/2] | Hansen Sol Par, hydrogen bonding [9] [cal^1/2 cm^−3/2] | Hansen Sol Par, polar [9] [cal^1/2 cm^−3/2] | Hansen Sol Par, total [9] [cal^1/2 cm ^−3/2] | toxicity towards mammals [12] | other results |
| --- | --- | --- | --- | --- | --- | --- | --- | --- | --- |
| O=C1OCCO1 [EC, ethylene carbonate] | 44.0* dynes/cm | 42.2 | 4.80 |  |  |  |  |  |  |
| O=C(O)CNCP(=O)(O)O [glyphosate, N-phosphonomethylglycine, reference compound] |  |  |  |  |  |  |  |  | lambsquarters control (necrosis/kill), overall ([3]; FIG. 3, glyphosate 0.25 lb ae/acre, adjuvant 0.1 v/v%, no AMS): very little observed necrosis; water solubility [4]: low water solubility; velvetleaf control (necrosis), overall ([5]; FIG. 1, glyphosate IPA salt 0.25 lb ae/acre, adjuvant 0.1 v/v%, no AMS): very little observed necrosis |
| CC1COC(=O)O1 (stereo not drawn) [PC, propylene carbonate] | 40.9 dynes/cm | 39.6 | 4.98 | 9.8 | 2.0 | 8.8 | 13.3 | relatively low toxicity | skin irritation [6]: moderate skin irritation; genotoxicity [7]: negative; toxicity by inhalation [8]: non-toxic; toxicity by inhalation [10]: non-toxic; LD50 [11]: > 20 mL/kg; biodegradability [13]: very readily biodegradable; adverse effects on activated sludge bacteria [14]: did not show adverse effects |
| N.N.O=S(=O)(O)O [AMS, ammonium sulfate] |  |  |  |  |  |  |  |  | lambsquarters control, overall efficacy ([3]; FIG. 4, glyphosate with AMS 17 lb/100 gallons): does not produce the dramatic improved efficacy; velvetleaf necrosis, overall ([5]; FIG. 2, glyphosate with AMS 17 lb/100 gallons): dramatically increases velvetleaf necrosis |
| CCC1COC(=O)O1 (stereo not drawn) [BC, 1,2-butylene carbonate] | 38.1 dynes/cm | 37.0 | 5.28 | 8.3 | 4.8 | 3.0 | 10.0 | relatively low toxicity |  |
| CNC(=O)CSP(=S)(OC)OC [Cygon, dimethoate] |  |  |  |  |  |  |  |  | time to lose 50 percent of pest control power ([15]; mixed in water of pH 9): 48 min; time to lose 50 percent of pest control power ([15]; pH of 6): 720 min |

Reference: US7297660B2, “Alkylene carbonate adjuvants” (Huntsman Petrochemical Corporation, priority 2001, dated 2007)
